Source: patent US8685974B2 (Bayer CropScience AG, priority 2009, dated 2014)
Read-outs that look alike come from different tables or passages of the source. Marks after values point to notes of the source that are not given here.

Key:
Fusarium graminearum = assay type: cell-based; conditions: 50 μM; for % Inhibition of DON/AcDON at 50 μM: 7 days at 28° C.
Alternaria solani = test: Alternaria test (tomato) / protective; assay type: in vivo; conditions: 500 ppm active compound, protective spray, evaluated 7 days after inoculation
Procedure: Alternaria Test (Tomato)/Protective
Solvent: 49 parts by weight of N,N-dimethylformamide
Emulsifier: 1 part by weight of alkylaryl polyglycol ether
To produce a suitable preparation of active compound, 1 part by weight of active compound is mixed with the stated amounts of solvent and emulsifier, and the concentrate is diluted with water to the desired concentration.
To test for protective activity, young tomato plants are sprayed with the preparation of active compound at the stated application rate. […] The plants then remain at 96% rel. atmospheric humidity and a temperature of 20° C.
Evaluation is carried out 7 days after the inoculation. 0% means an efficacy which corresponds to that of the control, whereas an efficacy of 100% means that no infection is observed.

Pyrenophora teres = test: In vivo test on Pyrenophora teres (barley net blotch); conditions: dose of 500 ppm; barley plants; grading 12 days after contamination
Procedure: In Vivo Test on Pyrenophora teres (Barley Net Blotch)
The active ingredients tested are prepared by homogenization in a mixture of acetone/Tween/DMSO, then diluted with water to obtain the desired active material concentration.
Barley plants (Plaisant variety), sown on a 50/50 peat soil-pozzolana substrate in starter cups and grown at 12° C., are treated at the 1-leaf stage (10 cm tall) by spraying with the active ingredient prepared as described above.
Plants, used as controls, are treated with an aqueous solution not containing the active material.
After 24 hours, the plants are contaminated by spraying them with an aqueous suspension of Pyrenophora teres spores (12,000 spores per ml). The spores are collected from a 12-day-old culture. The contaminated barley plants are incubated for 24 hours at about 20° C. and at 100% relative humidity, and then for 12 days at 80% relative humidity.
Grading is carried out 12 days after the contamination, in comparison with the control plants.

| Structure (SMILES) | efficacy (Alternaria solani) [%] | log p (pH 2.7) | protection (Pyrenophora teres) [%] | further results |
| --- | --- | --- | --- | --- |
| COCC(=O)Nc1cc(-c2cn(C)nc2-c2ccc(Cl)s2)ccn1 [Example 276] | 90 | 2.4^[b] | 80 | % Inhibition of fungal growth at 50 μM (Fusarium graminearum): 98%; % Inhibition of DON/AcDON at 50 μM (Fusarium graminearum): 98% |
| CC(C)n1cc(-c2ccnc(NC(=O)CC3CC3)c2)c(-c2ccc(Cl)s2)n1 [Example 250] | 90 | 3.37^[b] | 100 | % Inhibition of fungal growth at 50 μM (Fusarium graminearum): 29%; % Inhibition of DON/AcDON at 50 μM (Fusarium graminearum): 99% |
| CCC(C)C(=O)Nc1cc(-c2cn(C(C)CC)nc2-c2ccc(Cl)s2)ccn1 (centres unmarked) [Example 228] | 70 | 4.05^[b] | 90 | % Inhibition of fungal growth at 50 μM (Fusarium graminearum): 49%; % Inhibition of DON/AcDON at 50 μM (Fusarium graminearum): 92% |
| CCC(C)n1cc(-c2ccnc(NCC3CC3)n2)c(-c2ccc(Cl)s2)n1 (centres unmarked) [Example 187] |  |  | 70 | log p (pH 2.3): 3.41^[a] |
| N#CCCn1cc(-c2ccncc2)c(-c2ccc(Br)s2)n1 [Example 350] | 80 | 1.42^[b] | 90 | % Inhibition of fungal growth at 50 μM (Fusarium graminearum): 92%; % Inhibition of DON/AcDON at 50 μM (Fusarium graminearum): 99% |
| CC(C)OC(=O)Nc1cc(-c2cn(C)nc2-c2ccc(Cl)s2)ccn1 [Example 274] | 80 | 2.9^[b] | 80 |  |
| CC(C)n1cc(-c2ccnc(NC(=O)c3cccs3)c2)c(-c2ccc(Cl)s2)n1 [Example 241] |  | 3.96^[b] | 80 |  |
| CC(C)n1cc(-c2ccnc(NC(=O)C(C)(C)C)c2)c(-c2ccc(Cl)s2)n1 [Example 233] | 90 | 3.87^[b] | 90 |  |
| Clc1ccc(-c2nn(C3CCCCC3)cc2-c2ccncc2)s1 [Example 11] |  | 2.54^[b] | 89 |  |
| CCn1cc(-c2ccncc2)c(-c2ccc(Cl)s2)n1 [Example 57] |  | 1.5^[b] | 95 | logP value of the minor isomer (in parenthesis in column Isomer ratio [d]) (minor isomer, main value of the example measured by method [b], pH 2.7): (1.42) |
| CCn1cc(-c2ccnc(NC(=O)c3ccsc3)c2)c(-c2ccc(Cl)s2)n1 [Example 254] | 70 | 3.29^[b] | 90 |  |
| CCC(C)n1nc(-c2ccc(Cl)s2)c(-c2ccncc2)c1F (centres unmarked) [Example 213] | 80 | 2.61^[b] | 70 |  |
| CCOC(=O)Nc1cc(-c2cn(C(C)C)nc2-c2ccc(Cl)s2)ccn1 [Example 259] | 90 | 3.46^[b] | 80 |  |
| C[C@H](O)C(=O)Nc1cc(-c2cn(C)nc2-c2ccc(Cl)s2)ccn1 [Example 207] |  | 2.11^[b] | 70 |  |
| CCOC(=O)Nc1cc(-c2cn(C)nc2-c2ccc(Cl)s2)ccn1 [Example 271] |  | 2.56^[b] | 90 | % Inhibition of fungal growth at 50 μM (Fusarium graminearum): 20%; % Inhibition of DON/AcDON at 50 μM (Fusarium graminearum): 94% |
| CCC(C)n1cc(-c2ccnc(NC(C)COC)n2)c(-c2ccc(Cl)s2)n1 (centres unmarked) [Example 186] |  |  | 70 | log p (pH 2.3): 3.21^[a] |
| CC(C)n1cc(-c2ccnc(NC(=O)Cc3ccccc3)c2)c(-c2ccc(Cl)s2)n1 [Example 245] |  | 3.94^[b] | 100 |  |
| CCn1cc(-c2ccnc(NC(=O)Cc3ccccc3)c2)c(-c2ccc(Cl)s2)n1 [Example 262] | 80 | 3.48^[b] | 90 |  |
| CCC(C)n1cc(-c2ccnc(N(C(C)=O)C(C)=O)n2)c(-c2ccc(Cl)s2)n1 (centres unmarked) [Example 150] |  |  | 95 | log p (pH 2.3): 3.72^[a] |
| CC(C)CC(C)n1cc(-c2ccncc2)c(-c2ccc(Cl)s2)n1 (centres unmarked) [Example 13] |  | 2.7^[b] | 94 |  |
| Cn1cc(-c2ccnc(NC(=O)C(C)(C)O)c2)c(-c2ccc(Cl)s2)n1 [Example 208] |  | 2.26^[b] | 80 |  |
| CC(C)n1cc(-c2ccnc(NC(=O)C(C)(C)O)c2)c(-c2ccc(Cl)s2)n1 [Example 211] | 90 | 3.17^[b] | 95 |  |
| Cn1cc(-c2ccnc(NC(=O)c3ccccc3)c2)c(-c2ccc(Cl)s2)n1 [Example 272] |  | 3.09^[b] | 70 |  |
| CCC(C)n1cc(-c2ccnc(NC(=O)Cc3ccccc3)c2)c(-c2ccc(Cl)s2)n1 (centres unmarked) [Example 224] | 80 | 4.35^[b] | 95 |  |

| Structure (SMILES) | efficacy (Alternaria solani) [%] | log p (pH 2.7) | protection (Pyrenophora teres) [%] | further results |
| --- | --- | --- | --- | --- |
| CC(C)n1cc(-c2ccnc(NC3CC3)n2)c(-c2ccc(Cl)s2)n1 [Example 177] | 90 |  | 95 | log p (pH 2.3): 2.59^[a] |
| CC(=O)Nc1nccc(-c2cn(C(C)C)nc2-c2ccc(Cl)s2)n1 [Example 176] |  |  | 90 | log p (pH 2.3): 2.59^[a] |
| CCC(C)n1cc(-c2ccnc(NC(C)=O)n2)c(-c2ccc(Cl)s2)n1 (centres unmarked) [Example 151] |  |  | 90 | log p (pH 2.3): 3^[a] |
| CCOC(=O)Nc1cc(-c2cn(C(C)CC)nc2-c2ccc(Cl)s2)ccn1 (centres unmarked) [Example 236] | 80 | 3.92^[b] | 95 |  |
| CC(C)Cn1cc(-c2ccncn2)c(-c2ccc(Cl)s2)n1 [Example 26] |  | 3.31^[b] | 70 |  |
| CC(C)C(=O)Nc1nccc(-c2cn(C(C)C)nc2-c2ccc(Cl)s2)n1 [Example 174] |  |  | 90 | log p (pH 2.3): 3.29^[a] |
| Cn1cc(-c2ccnc(NC(=O)C3CCC3)c2)c(-c2ccc(Cl)s2)n1 [Example 275] |  | 2.52^[b] | 90 | % Inhibition of fungal growth at 50 μM (Fusarium graminearum): 95%; % Inhibition of DON/AcDON at 50 μM (Fusarium graminearum): 99% |
| CCC(C)n1cc(-c2ccnc(NC(=O)C(C)(C)O)c2)c(-c2ccc(Cl)s2)n1 (centres unmarked) [Example 210] | 90 | 4.24^[b] | 70 |  |
| CC(C)n1cc(-c2ccnc(NC(=O)c3ccsc3)c2)c(-c2ccc(Cl)s2)n1 [Example 232] | 80 | 3.79^[b] | 80 |  |
| CCC(C)n1cc(-c2ccnc(NC3CC3)n2)c(-c2ccc(Cl)s2)n1 (centres unmarked) [Example 195] |  |  | 95 | % Inhibition of fungal growth at 50 μM (Fusarium graminearum): 94%; % Inhibition of DON/AcDON at 50 μM (Fusarium graminearum): 99%; log p (pH 2.3): 2.9^[a] |
| CC(C)n1cc(-c2ccnc(NCC3CC3)n2)c(-c2ccc(Cl)s2)n1 [Example 183] |  |  | 70 | log p (pH 2.3): 3.02^[a] |
| C#CCNc1nccc(-c2cn(C(C)CC)nc2-c2ccc(Cl)s2)n1 (centres unmarked) [Example 188] |  |  | 78 | log p (pH 2.3): 3.68^[a] |
| Cn1cc(-c2ccnc(NC(=O)c3ccsc3)c2)c(-c2ccc(Cl)s2)n1 [Example 282] | 80 | 2.88^[b] | 70 |  |
| CC(C)(C)Cn1cc(-c2ccncc2)c(-c2ccc(Cl)s2)n1 [Example 24] |  | 2.39^[b] | 90 |  |
| CCCc1c(-c2ccnc(NC(=O)CC)c2)c(-c2sccc2C)nn1C [Example 166] |  | 2.29^[b] | 80 | logP value of the minor isomer (pH 2.7): 2.39^[b]); log p (pH 7.8): 2.71^[c];; logP value of the minor isomer (pH 7.8): (2.84^[c]; |
| CCn1cc(-c2ccnc(NC(=O)C(C)(C)C)c2)c(-c2ccc(Cl)s2)n1 [Example 255] | 90 | 3.37^[b] | 100 |  |
| CCn1cc(-c2ccnc(NC(=O)[C@H](C)O)c2)c(-c2ccc(Cl)s2)n1 [Example 206] | 80 | 2.37^[b] | 90 |  |
| CCC(C)n1cc(-c2ccnc(NC(=O)c3cccs3)c2)c(-c2ccc(Cl)s2)n1 (centres unmarked) [Example 238] | 70 | 4.37^[b] | 80 |  |
| CCC(C)n1cc(-c2ccnc(N)n2)c(-c2ccc(Cl)s2)n1 (centres unmarked) [Example 193] |  |  | 95 | log p (pH 2.3): 2.3^[a] |
| CCC(C)n1cc(-c2ccnc(NC(=O)c3ccsc3)c2)c(-c2ccc(Cl)s2)n1 (centres unmarked) [Example 230] |  | 4.21^[b] | 70 |  |
| CC(C)OC(=O)Nc1cc(-c2cn(C(C)C)nc2-c2ccc(Cl)s2)ccn1 [Example 242] | 90 | 3.85^[b] | 70 |  |
| CCn1cc(-c2ccnc(NC(=O)c3cccs3)c2)c(-c2ccc(Cl)s2)n1 [Example 267] |  | 3.48^[b] | 80 | % Inhibition of fungal growth at 50 μM (Fusarium graminearum): 47%; % Inhibition of DON/AcDON at 50 μM (Fusarium graminearum): 89% |
| CCOC(=O)Nc1cc(-c2cn(CC)nc2-c2ccc(Cl)s2)ccn1 [Example 265] |  | 3^[b] | 70 | % Inhibition of fungal growth at 50 μM (Fusarium graminearum): 23%; % Inhibition of DON/AcDON at 50 μM (Fusarium graminearum): 87% |
| CCn1cc(-c2ccnc(NC(=O)C(C)(C)O)c2)c(-c2ccc(Cl)s2)n1 [Example 212] | 70 | 2.73^[b] | 80 |  |
